From patent US20220396567A1, “SUBSTITUTED PYRIMIDINE FOR THE TREATMENT AND PROPHYLAXIS OF HEPATITIS B VIRUS INFECTION” (Hoffmann-La Roche Inc., priority 2019, published 2022)

These compounds were tested on HBV (assay: Cryopreserved primary human hepatocytes (PHH) HBV infection assay, extracellular HBsAg by CLIA). Details: Hepatitis B virus, Hepatocyte, 216 h; HBV-infected cryopreserved PHH; extracellular HBsAg at 9 days post-compound treatment; 4 parameter logistic curve fit.
Assay type: cell-based
Description: This assay is used to confirm the anti-HBV effect of the compounds in HBV PHH infection assay. Cryopreserved PHH (BioreclamationIVT, Lot YJM) was thawed at 37° C. and gently transferred into pre-warmed InVitroGRO HT medium (BioreclamationIVT, Cat. S03317). The mixture was centrifuged at 70 relative centrifugal force (RCF) for 3 min at RT, and the supernatant was discarded. Pre-warmed InVitroGRO CP medium (BioreclamationIVT, Cat #S03316) was added to the cell pellet to gently re-suspend cells. The cells were seeded at the density of 5.8×10^4 cells per well to collagen I coated 96-well plate (Gibco, Cat. A1142803) with the InVitroGRO CP medium. All plates were incubated at 37° C. with 5% CO2 and 85% humidity.
At 20 hrs after plating, the medium was changed to PHH culture medium (Dulbecco's Modified Eagle Medium (DMEM)/F12 (1:1) (Gibco, Cat. 11320-033), 10% fetal bovine serum (Gibco Cat. 10099141), 100 U/mL penicillin, 100 μg/mL streptomycin (Gibco, Cat. 151401-122), […] (Invitrogen Cat. PHG0311L), 20 ng/mL dexamethasone (Sigma, Cat. D4902) and 250 ng/mL human recombinant insulin (Gibco, Cat. 12585-014)). And the cells were incubated at 37° C. with 5% CO2 and 85% humidity for 4 hrs. The medium was then changed to pre-warmed PHH culture medium containing 4% polyethylene glycol (PEG) MW8000 (Sigma, Cat. P1458-50 ML) and 1% DMSO (Sigma, Cat. D2650). 5.8×10^6 genomic equivalents of HBV were added into the medium.
At 24 hrs post-infection, the cells were gently washed with PBS and refreshed with PHH culture medium supplemented with 1% DMSO, and 0.25 mg/mL Matrix gel (Corning, Cat. 356237) at 200 μL per well. All plates were immediately placed in at 37° C. CO2 incubator.
24 hrs later, serial dilutions of compounds made with DMSO were further diluted with the same culture medium (PHH culture medium supplemented with 1% DMSO and 0.25 mg/mL Matrix gel as described above) before they were added to the cells to reach desired final compound concentrations and 1% DMSO concentration. The medium containing the compounds were refreshed every three days.
At 9 days post-compound treatment, extracellular HBsAg level were measured with Chemiluminescence Immuno Assay (CLIA) kit (Autobio, HBsAg Quantitative CLIA).
HBsAg IC50 was derived from the dose-response curve using 4 parameter logistic curve fit method. The compounds of formula (I) have HBsAg IC50<20 μM, particularly <1 μM.
Work on `CN(C)c1nc(NCc2ccccc2N)cc(-c2ccco2)n1` [Example 33, N4-[(2-aminophenyl)methyl]-6-(2-furyl)-N2,N2-dimethyl-pyrimidine-2,4-diamine] yielded an IC50 of 7.58 µM. Work on `COc1nc(NC(C)c2cccc(C(F)(F)F)c2)cc(-c2ccco2)n1` (stereo not drawn) [Example 34, 6-(2-furyl)-2-methoxy-N-[1-[3-(trifluoromethyl)phenyl]ethyl]pyrimidin-4-amine] yielded an IC50 of 3.49 µM. In the case of `COc1c(NCc2cccc(C(F)(F)F)c2)nc(N)nc1-c1ccco1` [Example 35, 6-(2-furyl)-5-methoxy-N4-[[3-(trifluoromethyl)phenyl]methyl]pyrimidine-2,4-diamine], the IC50 is reported as 7.85 µM. Work on `Nc1nc(NCc2ccccc2N)cc(-c2cccs2)n1` [Example 36, N4-[(2-aminophenyl)methyl]-6-(2-thienyl)pyrimidine-2,4-diamine] yielded an IC50 of 6.62 µM. Work on `Nc1nc(NCc2ccc(Cl)cc2)c(C(=O)O)c(-c2ccco2)n1` [Example 37, 2-amino-4-[(4-chlorophenyl)methylamino]-6-(2-furyl)pyrimidine-5-carboxylic Acid] yielded an IC50 of 2.93 µM. `Nc1nc(NCc2cccc(C(F)(F)F)c2)c(C(=O)O)c(-c2ccco2)n1` [Example 38, 2-amino-4-(2-furyl)-6-[[3-(trifluoromethyl)phenyl]methylamino]pyrimidine-5-carboxylic Acid] gave an IC50 of 2.49 µM. For `Cc1ccccc1CNc1nc(N)nc(-c2ccco2)c1C(=O)O` [Example 39, 2-amino-4-(2-furyl)-6-(o-tolylmethylamino)pyrimidine-5-carboxylic Acid], the IC50 was 9.07 µM. `COc1ccccc1CNc1nc(N)nc(-c2ccco2)c1C(=O)O` [Example 40, 2-amino-4-(2-furyl)-6-[(2-methoxyphenyl)methylamino]pyrimidine-5-carboxylic Acid] gave an IC50 of 6.67 µM. `Nc1nc(NCC2CCCC2)c(C(=O)O)c(-c2ccco2)n1` [Example 41, 2-amino-4-(cyclopentylmethylamino)-6-(2-furyl)pyrimidine-5-carboxylic acid] gave an IC50 of 3.24 µM. `CN(Cc1ccccc1)c1nc(N)nc(-c2ccco2)c1C(=O)O` [Example 42, 2-amino-4-[benzyl(methyl)amino]-6-(2-furyl)pyrimidine-5-carboxylic Acid] gave an IC50 of 5.27 µM. `CN(C)c1nc(NCC2CCCC2)c(C(=O)O)c(-c2ccco2)n1` [Example 43, 4-(cyclopentylmethylamino)-2-(dimethylamino)-6-(2-furyl)pyrimidine-5-carboxylic Acid] was tested, and the IC50 was 5.55 µM. For `CCOC(=O)c1c(NCc2c(Br)ccc(OC)c2OC)nc(N)nc1-c1ccco1` [Example 44, Ethyl 2-amino-4-[(6-bromo-2,3-dimethoxy-phenyl)methylamino]-6-(2-furyl)pyrimidine-5-carboxylate], the IC50 was 8.06 µM. `CCOC(=O)c1c(NCc2cccc(C(F)(F)F)c2)nc(SC)nc1-c1ccco1` [Example 45, Ethyl 4-(2-furyl)-2-methylsulfanyl-6-[[3-(trifluoromethyl)phenyl]methylamino]pyrimidine-5-carboxylate] was tested, and the IC50 was 8.16 µM. `COCCNc1nc(NCc2cccc(C(F)(F)F)c2)c(C(=O)O)c(-c2ccco2)n1` [Example 46, 4-(2-furyl)-2-(2-methoxyethylamino)-6-[[3-(trifluoromethyl)phenyl]methylamino]pyrimidine-5-carboxylic Acid] showed an IC50 of 4.31 µM. Compound `CCOC(=O)c1c(NCc2cccc(C(F)(F)F)c2)nc(N2CC3(CCC3)C2)nc1-c1ccco1` [Example 47, Ethyl 2-(2-azaspiro[3.3]heptan-2-yl)-4-(2-furyl)-6-[[3-(trifluoromethyl)phenyl]methylamino]pyrimidine-5-carboxylate] has an IC50 of 3.26 µM. `O=C(O)c1c(NCc2cccc(C(F)(F)F)c2)nc(N2CC3(CCC3)C2)nc1-c1ccco1` [Example 48, 2-(2-azaspiro[3.3]heptan-2-yl)-4-(2-furyl)-6-[[3-(trifluoromethyl)phenyl]methylamino]pyrimidine-5-carboxylic Acid] was tested, and the IC50 was 6.37 µM. Compound `CCOC(=O)c1c(NCc2cccc(C(F)(F)F)c2)nc(NCC(C)C)nc1-c1ccco1` [Example 49, Ethyl 4-(2-furyl)-2-(isobutylamino)-6-[[3-(trifluoromethyl)phenyl]methylamino]pyrimidine-5-carboxylate] has an IC50 of 5.35 µM. With `CC(C)CNc1nc(NCc2cccc(C(F)(F)F)c2)c(C(=O)O)c(-c2ccco2)n1` [Example 50, 4-(2-furyl)-2-(isobutylamino)-6-[[3-(trifluoromethyl)phenyl]methylamino]pyrimidine-5-carboxylic Acid] the IC50 was 8.62 µM. For `COCCCNc1nc(NCc2cccc(C(F)(F)F)c2)c(C(=O)O)c(-c2ccco2)n1` [Example 51, 4-(2-furyl)-2-(3-methoxypropylamino)-6-[[3-(trifluoromethyl)phenyl]methylamino]pyrimidine-5-carboxylic Acid], the IC50 was 9.61 µM. `Nc1nc(NCc2cccc(C(F)(F)F)c2)c(C(=O)N2CCC2)c(-c2ccco2)n1` [Example 52, [2-amino-4-(2-furyl)-6-[[3-(trifluoromethyl)phenyl]methylamino]pyrimidin-5-yl]-(azetidin-1-yl)methanone] was tested, and the IC50 was 7.94 µM. Work on `Nc1nc(NCc2cccc(C(F)(F)F)c2)c(C(=O)N2CCCC2)c(-c2ccco2)n1` [Example 53, [2-amino-4-(2-furyl)-6-[[3-(trifluoromethyl)phenyl]methylamino]pyrimidin-5-yl]-pyrrolidin-1-yl-methanone] yielded an IC50 of 9.25 µM. For `Nc1nc(NCc2cccc(C(F)(F)F)c2)c(C(=O)N2CCCCC2)c(-c2ccco2)n1` [Example 54, [2-amino-4-(2-furyl)-6-[[3-(trifluoromethyl)phenyl]methylamino]pyrimidin-5-yl]-(1-piperidyl)methanone], the IC50 was 6.59 µM. Compound `Nc1nc(NCc2cccc(C(F)(F)F)c2)c(C(=O)N2CCOCC2)c(-c2ccco2)n1` [Example 55, [2-amino-4-(2-furyl)-6-[[3-(trifluoromethyl)phenyl]methylamino]pyrimidin-5-yl]-morpholino-methanone] has an IC50 of 10.1 µM. Work on `CC(C)(C)OC(=O)N1CCN(C(=O)c2c(NCc3cccc(C(F)(F)F)c3)nc(N)nc2-c2ccco2)CC1` [Example 56, tert-butyl4-[2-amino-4-(2-furyl)-6-[[3-(trifluoromethyl)phenyl]methylamino]pyrimidine-5-carbonyl]piperazine-1-carboxylate] yielded an IC50 of 9.66 µM. Work on `CCOC(=O)c1c(NCc2ccccc2Cl)ncnc1-c1ccco1` [Example 57, Ethyl 4-[(2-chlorophenyl)methylamino]-6-(2-furyl)pyrimidine-5-carboxylate] yielded an IC50 of 4.26 µM. In the case of `COCCNc1nc(NC2(c3cccc(C(F)(F)F)c3)CC2)c(C(=O)O)c(-c2ccco2)n1` [Example 58, 4-(2-furyl)-2-(2-methoxyethylamino)-6-[[1-[3-(trifluoromethyl)phenyl]cyclopropyl]amino]pyrimidine-5-carboxylic Acid], the IC50 is reported as 5.96 µM. With `COCCNc1nc(NCc2cccc(Cl)c2)c(C(=O)O)c(-c2ccco2)n1` [Example 59, 4-[(3-chlorophenyl)methylamino]-6-(2-furyl)-2-(2-methoxyethylamino)pyrimidine-5-carboxylic Acid] the IC50 was 3.71 µM. Compound `CCNc1nc(NC2(c3cccc(C(F)(F)F)c3)CC2)c(C(=O)O)c(-c2ccco2)n1` [Example 60, 2-(ethylamino)-4-(2-furyl)-6-[[1-[3-(trifluoromethyl)phenyl]cyclopropyl]amino]pyrimidine-5-carboxylic Acid] has an IC50 of 6.5 µM. `CCOC(=O)c1c(NCc2cccc(C(F)(F)F)c2)nc(C)nc1-c1ccco1` [Example 61, Ethyl 4-(2-furyl)-2-methyl-6-[[3-(trifluoromethyl)phenyl]methylamino]pyrimidine-5-carboxylate] was tested, and the IC50 was 7.38 µM. Work on `CCOC(=O)c1c(NCc2c(Br)ccc(OC)c2OC)nc(C(C)C)nc1-c1ccco1` [Example 62, Ethyl 4-[(6-bromo-2,3-dimethoxy-phenyl)methylamino]-6-(2-furyl)-2-isopropyl-pyrimidine-5-carboxylate] yielded an IC50 of 10.2 µM.
